We go through 48 compounds from US6913877B1 (priority 2000, dated 2005).

“Also recorded” adds a separate entry of the source. Counter-ions that a name gives are not always drawn. No end group written: not given here.

One data set has as its system melanophores. The class given is cell-based.
For data set [1], the system named is chromatophore/neuronal cell. The class given is cell-based.
The test system of data set [2] is chromatophores.
Data set [3] concerns chromatophores. The experiment in a line: cells. The following applies: read-out: Threshold concentration PPM.
For data set [4], the system named is chromatophores. In kind it is cell-based.
Data set [5] has as its system Betta splendens erythrophores. In kind it is cell-based.
The subject of data set [6] is Betta splendens chromatophores. In kind it is cell-based.
Data set [7] relates to Hemichromis bimaculatus chromatophores. In kind it is cell-based.
The test system of another data set is Betta chromatophores. In kind it is cell-based.
The subject of data set [8] is chromatophore/bacterial cell. In kind it is cell-based.
In the next data set the test system is erythrophores. In kind it is cell-based.
Data set [9] relates to chromatophore/protozoal cell. The class given is cell-based.
Data set [10] relates to chromatophore/fungal cell. The class given is cell-based.
A further data set has as its system iridophores. In kind it is cell-based.

Regarding `O=S(=O)(F)Cc1ccccc1` [PMSF], the “Chromatophore response Melanophores” value in the data set on melanophores is on record as “Imp”.

Turning to `Nc1ncnc2c1ncn2[C@@H]1O[C@H](COP(=O)(O)OP(=O)(O)OP(=O)(O)O)[C@@H](O)[C@H]1O` [ATP], in data set [1], the “Chromatophore response 2-Cell Cytosensor (second cell type included)” value (“Chromatophore response 2-Cell Cytosensor” for short) is given as “Erythr. Aggr”.

As to `COP(=O)(OC)C(O)C(Cl)(Cl)Cl` (stereo not drawn) [Trichlorfon], the “Threshold concentration PPT” value in the data set on chromatophores [2] is “X (key: X=1 PPT or higher)”.

On to `CCCCCCC(C)(C)c1ccc([C@@H]2C[C@H](O)CC[C@H]2CCCO)c(O)c1` [Cannabinoid CP-55940, CP-55940], for which the “Response time Hr.” value in the data set with chromatophores [2] is recorded as “X (key: X=1-6 hr; XX=6-24 hr)”. Besides, the minimal effective concentration with chromatophores [3] lay within 100 to 1000 µg/mL.

For `CC(COc1ccccc1)N(CCCl)Cc1ccccc1` (stereo not drawn) [Phenoxybenzamine, Phenoxy-benzamine], in the data set on chromatophores [2], the “Chromatophore response (cell spans the chromatophore columns, cell type not assigned)” value is recorded as “Blocks norepinephrine” and the “Threshold concentration PPB” value is given as “X (key: X=1 to 100 PPB; XX=100 to 1000 PPB)”.

As to `C[C@]12CCC(=O)C=C1CC[C@@H]1[C@@H]2[C@@H](O)C[C@@]2(C)[C@H]1CC[C@]2(O)C(=O)CO` [Hydrocortisone], the “Chromatophore response Melanophores” value with melanophores was “Hyp.D”. The minimal effective concentration in the data set on chromatophores [3] was 1 to 100 µg/mL.

Turning to `COP(=O)(OC)OC=C(Cl)Cl` [Dichlorvos], the “Threshold concentration PPT” value with chromatophores [2] is “X (key: X=1 PPT or higher)”.

For the compound `C=C[C@@]1(C)CC(=O)[C@]2(O)[C@@]3(C)[C@@H](O)CCC(C)(C)[C@@H]3[C@H](O)[C@H](OC(C)=O)[C@@]2(C)O1` [Forskolin], in the data set on chromatophores [4], the “concentration at which chromatophores respond” value was 10 mM.

As for `CC(=O)OCOC(=O)CN(CC(=O)OCOC(C)=O)c1ccccc1OCCOc1ccccc1N(CC(=O)OCOC(C)=O)CC(=O)OCOC(C)=O` [BAPTA/AM], the erythrophore pigment response entry in data set [5] is “pigment dispersion”.

Regarding Cholera toxin, the “lowest concentration at which inhibition of norepinephrine induced pigment aggregation is detected” value in data set [6] worked out at 1 ng/m. For the same compound, in the data set with chromatophores [2], the “Threshold concentration PPB” value was “X (key: X=1 to 100 PPB; XX=100 to 1000 PPB)”. Besides, in [7], the “change of appearance / color of chromatophores” value was “change the appearance” and the “erythrophore response upon challenge by norepinephrine” value was “impaired”. In the data set on chromatophores [4], the “color class of chromatophores with selective sensitivity” value is given as “erythrophores”. Further, in the data set on Betta chromatophores, the chromatophore pigment response result is given as “Pigment aggregation is evident” and the “effect of pre-incubation on norepinephrine-induced pigment aggregation” value was “impaired pigment aggregation in response to NE”.

Take `N` [Ammonium]: the “Chromatophore response (cell spans the chromatophore columns, cell type not assigned)” value in the data set with chromatophores [2] is “Imp. (FS)”.

In the case of `CCn1cc(C(=O)O)c(=O)c2ccc(C)nc21` [Nalidixic acid], in [8], the “Chromatophore response 2-Cell Cytosensor” value is listed as “Normal”.

`CN(C)[C@@H]1C(O)=C(C(N)=O)C(=O)[C@@]2(O)C(O)=C3C(=O)c4c(O)cccc4[C@@](C)(O)[C@H]3C[C@@H]12` [Tetrasycline]: in the data set on chromatophores [2], the “Response time Hr.” value is recorded as “XX (key: X=1-6 hr; XX=6-24 hr)” and the “Threshold concentration PPM” value was “X (key: X=1 to 100 PPM; XX=100 to 1000 PPM)”. In data set [8], the “Chromatophore response 2-Cell Cytosensor” value is listed as “Normal”.

Consider `C=C(C=O)C[C@@H]1C[C@H](O)[C@]2(C)O[C@@H]3C[C@@H]4O[C@@H]5C[C@]6(C)O[C@]7(C)CC[C@@H]8O[C@@H]9C[C@]%10(C)O[C@@H]%11C(C)=CC(=O)O[C@H]%11C[C@H]%10O[C@H]9C[C@@H](C)[C@H]8O[C@H]7C[C@H]6O[C@H]5C/C=C\[C@H]4O[C@H]3C[C@H]2O1` [Brevetoxin], for which the “Chromatophore response (cell spans the chromatophore columns, cell type not assigned)” value in the data set on chromatophores [2] is “Aggr”.

Consider `Cc1ccc(N(CC2=NCCN2)c2cccc(O)c2)cc1` [Phentolamine], for which, in the data set with chromatophores [2], the “Chromatophore response (cell spans the chromatophore columns, cell type not assigned)” value is reported as “Blocks norepinephrine” and the “Threshold concentration PPB” value is reported as “XX (key: X=1 to 100 PPB; XX=100 to 1000 PPB)”.

Take Latrotoxin: in the data set with erythrophores, the “Chromatophore response Erythrophores” value is listed as “Aggr”. In addition, the “Chromatophore response 2-Cell Cytosensor” value in data set [1] is “Aggr”.

With melanophore concentrating hormone [MCH], in the data set with chromatophores [2], the “Chromatophore response (cell spans the chromatophore columns, cell type not assigned)” value is given as “Aggr” and the “Threshold concentration PPB” value was “X (key: X=1 to 100 PPB; XX=100 to 1000 PPB)”.

For `C=C[C@H]1C[N@@]2CC[C@H]1C[C@H]2[C@H](O)c1ccnc2ccc(OC)cc12` [Quinine sulfate], the “Chromatophore response 2-Cell Cytosensor” value in data set [9] is recorded as “Normal”.

On to `[Ag]` [Ag], for which, in the data set on chromatophores [2], the “Chromatophore response (cell spans the chromatophore columns, cell type not assigned)” value is “Imp. (FS)”.

With `CCN(CC)CCCC(C)Nc1ccnc2cc(Cl)ccc12` (stereo not drawn) [Chloroquine], the “Chromatophore response 2-Cell Cytosensor” value in [9] is given as “Normal”.

`O=C(O)c1ccccc1O` [Salicylate]: the “Chromatophore response (cell spans the chromatophore columns, cell type not assigned)” value in the data set on chromatophores [2] is listed as “Imp. (FS)”.

`Cc1cc(C(C)(C)C)c(O)c(C)c1CC1=NCCN1` [Oxymetazoline]: the “Chromatophore response Erythrophores” value in the data set with erythrophores is given as “Aggr”.

Turning to `OO` [Hydrogen peroxide], in the data set on chromatophores [2], the “Chromatophore response (cell spans the chromatophore columns, cell type not assigned)” value was “Imp. (FS)”.

As for `C[C@@H]1[C@H](O)[C@@H](C)/C=C/C=C/C=C/C=C/C=C/C=C/C=C/[C@H](O[C@@H]2O[C@H](C)[C@@H](O)[C@H](N)[C@@H]2O)C[C@@H]2O[C@](O)(C[C@@H](O)C[C@@H](O)[C@H](O)CC[C@@H](O)C[C@@H](O)CC(=O)O[C@H]1C)C[C@H](O)[C@H]2C(=O)O` [Amphotericin B], the “Chromatophore response 2-Cell Cytosensor” value in data set [10] was “Normal”.

As for `COc1ccc(CCN(C)CCCC(C#N)(c2ccc(OC)c(OC)c2)C(C)C)cc1OC` (stereo not drawn) [Verapamil], the erythrophore pigment response result in data set [5] is reported as “rapid dispersion; also recorded: disperse almost as completely as possible; also recorded: pigment dispersion; also recorded: larger dispersion”.

As to `NC[C@H](O)c1ccc(O)c(O)c1` [Norepinephrine], the “Chromatophore response Erythrophores” value with erythrophores is “Aggr”. Also, in the data set on chromatophores [2], the “Threshold concentration PPB” value is on record as “X (key: X=1 to 100 PPB; XX=100 to 1000 PPB)”. Besides, in [7], the “change of appearance / color of chromatophores” value is “change the appearance”. The chromatophore pigment response result with Betta chromatophores is reported as “aggregation of chromatophore pigment is apparent”.

As to `C[N+](C)(C)CCOC(N)=O` [Carbachol], the “Chromatophore response 2-Cell Cytosensor” value in data set [1] is listed as “Erythr. Aggr”.

In the case of `C=CC[C@@H](CC/C(C)=C/C=C/CC/C=C\[C@@H]1CSC([C@@H]2C[C@@H]2C)=N1)OC` [Curacin A], the “Chromatophore response (cell spans the chromatophore columns, cell type not assigned)” value with chromatophores [2] was “Aggr. and Imp. (FS)”.

As for `[Cu]` [Cu], the “Chromatophore response (cell spans the chromatophore columns, cell type not assigned)” value in the data set with chromatophores [2] is “Imp. (FS)”.

Take `COC(=O)[C@@H]1[C@H]2C[C@H]3c4[nH]c5ccccc5c4CCN3C[C@@H]2CC[C@@H]1O` [Yohimbine]: in the data set with chromatophores [2], the “Chromatophore response (cell spans the chromatophore columns, cell type not assigned)” value was “Blocks norepinephrine” and the “Threshold concentration PPB” value is reported as “X (key: X=1 to 100 PPB; XX=100 to 1000 PPB)”.

Take Mevinphos: the “Chromatophore response Erythrophores” value in the data set with erythrophores is “Imp. (FS)”. For the same compound, in the data set with chromatophores [2], the “Threshold concentration PPT” value is on record as “X (key: X=1 PPT or higher)”. In the data set on melanophores, the “Chromatophore response Melanophores” value is reported as “Imp”. Moreover, in the data set with iridophores, the “Chromatophore response Iridophores” value is on record as “Hue change, then Imp”.

Regarding `c1ccc2cc3c(ccc4ccccc43)cc2c1` [1,2-Benzanthracene], the “Chromatophore response (cell spans the chromatophore columns, cell type not assigned)” value in the data set on chromatophores [2] is “Imp”.

Take `[Pb]` [Pb]: the “Chromatophore response (cell spans the chromatophore columns, cell type not assigned)” value in the data set on chromatophores [2] is on record as “Imp. (FS)”.

Turning to `Clc1cccc(Cl)c1N=C1NCCN1` [Clonidine], the “Chromatophore response Erythrophores” value in the data set with erythrophores is “Aggr”.

Consider MSH, for which the “Threshold concentration PPB” value in the data set with chromatophores [2] is given as “X (key: X=1 to 100 PPB; XX=100 to 1000 PPB)”. For the same compound, the “concentration at which chromatophores respond” value with chromatophores [4] was found to be 1e-06 mM. In addition, the “Chromatophore response Melanophores” value in the data set on melanophores is on record as “Disp”. Besides, in the data set on iridophores, the “Chromatophore response Iridophores” value was “Hue changes (isolated”.

In the case of Penicillin, the “Chromatophore response 2-Cell Cytosensor” value in [8] is recorded as “Normal”.

Turning to `Cc1ncc([N+](=O)[O-])n1CCO` [Metronidazole], the “Chromatophore response 2-Cell Cytosensor” value in data set [9] is “Normal”.

Consider `Cn1c(=O)c2c(ncn2C)n(C)c1=O` [Caffeine], for which the “concentration at which chromatophores respond” value in the data set on chromatophores [4] stood at 0.1 mM.

`[Ni]` [Ni]: the “Chromatophore response (cell spans the chromatophore columns, cell type not assigned)” value in the data set on chromatophores [2] was “Imp. (FS)”.

Regarding `c1ccc2c(c1)CCCC2C1=NCCN1` (stereo not drawn) [Tetrahydrozoline], in the data set on erythrophores, the “Chromatophore response Erythrophores” value is “Aggr”.

As for `COC(=O)C1=C(C)NC(C)=C([N+](=O)[O-])C1c1ccccc1C(F)(F)F` (stereo not drawn) [Bay K8644], the “erythrophore pigment response to direct application” value in data set [5] is “neither the aggregation nor dispersion of erythrophore pigment”.

Turning to `C[C@H](CCC(=O)O)C[C@H](C)C[C@H](C)C(=O)/C=C(\O)[C@H](C)C[C@H](C)C/C=C/[C@@H](C)[C@@H](O)[C@@H](C)[C@@H](O)C[C@@H]1CC[C@@](C)([C@H]2CC[C@@](C)([C@@H](C)O)O2)O1` [Ionomycin], the erythrophore pigment response result in data set [5] is recorded as “slight, but sustained aggregation”.

Take `CCOP(=O)(OCC)Oc1ccc([N+](=O)[O-])cc1` [Paraoxon]: the “Threshold concentration PPM” value in the data set with chromatophores [2] is on record as “XX (key: X=1 to 100 PPM; XX=100 to 1000 PPM)”.

`c1cc2c3c(cccc3c1)CC2` [Acenapthene]: in the data set on chromatophores [2], the “Chromatophore response (cell spans the chromatophore columns, cell type not assigned)” value was “Imp”.

Take `NCCc1c[nH]c2ccc(O)cc12` [Serotonin]: in the data set on melanophores, the “Chromatophore response Melanophores” value is listed as “Partial”.

Regarding `[H]/N=C(/N)N[C@H]1[C@H](O)[C@@H](O)[C@H](O[C@@H]2O[C@@H](C)[C@](O)(C=O)[C@H]2O[C@@H]2O[C@@H](CO)[C@H](O)[C@@H](O)[C@@H]2NC)[C@@H](N/C(N)=N\[H])[C@@H]1O` [Streptomycin], the “Chromatophore response 2-Cell Cytosensor” value in [8] is recorded as “Normal”.

With “Substance P (RPKPQQFFGLM; ends and bridges not checked; UniProt P20366 58-68, looked up)”, in the data set on iridophores, the “Chromatophore response Iridophores” value is reported as “Hue changes (FS)”.

In the case of `c1ccc2c(CC3=NCCN3)cccc2c1` [Naphazoline], the “Chromatophore response Erythrophores” value in the data set with erythrophores is “Aggr”.
